This passage reports IC50 results from patent publication US11479551B2, “MTA-cooperative PRMT5 inhibitors” (Mirati Therapeutics, Inc., priority 2019, dated 2022).

As a reminder, the IC50 is the concentration that inhibits the measured activity by half.

Assay [1] concerns the target T1, PRMT5/MEP50 complex (Homo sapiens (Human), UniProt O14744). Kind of assay: PRMT5:MEP50 FlashPlate Assay (histone H4 peptide substrate, plus and minus MTA). Type of assay: biochemical. To be noted: for IC50: IC50 + 2 μM MTA (nM), in the presence of 2 μM MTA; for pIC50: in the absence of MTA, read-out: IC50. How it is done: The PRMT5 inhibitory activity of compounds of the present invention was determined using either a PRMT5:MEP50 FlashPlate Assay (Reaction Biology Corporation) or a PRMT5:MEP50 HotSpot Assay (Reaction Biology Corporation).
1. PRMT5:MEP50 FlashPlate Assay

Assay [2] concerns the target T1, PRMT5/MEP50 complex. The assay is described as follows: PRMT5:MEP50 HotSpot Assay (full-length histone H2A substrate, plus and minus MTA). The format is biochemical. Particulars: IC50 + 2 μM MTA, in the presence of 2 μM MTA. The method in brief: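 Tritium incorporated into recombinant full-length histone H2A was counted by scintillation after stopped reactions were captured on filter paper.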

A further assay relates to HCT116 parental cells. The assay is described as follows: Proliferation assay (CellTiter-Glo, 10 days of treatment), HCT116 parental. Type of assay: cell-based. To be noted: Homo sapiens, HCT-116, 240 h. The method in brief:
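250 cells seeded in McCoy's 5A with 10% FBS, then given a dose response of PRMT5 inhibitor at 37 °C, 5% CO2 for five days. Cells were split 1:10 on Day 6 into fresh medium with the same compound concentration for 5 more days. Viability read on Day 11 by CellTiter-Glo; IC50 after 10 days of treatment.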

Assay [3] concerns HCT116 homozygous MTAP knockout cells. Kind of assay: Proliferation assay (CellTiter-Glo, 10 days of treatment), HCT116 MTAP knockout. The format is cell-based. To be noted: Homo sapiens, HCT-116, 240 h, read-out: Proliferation HCT116MTAP_KO IC50. The method in brief:
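Viability of the CRISPR/Cas9 homozygous MTAP-knockout HCT116 line was read by CellTiter-Glo after 10 days of PRMT5 inhibitor exposure, with IC50 derived from the dose response. Compound was given the day after seeding and renewed at an identical concentration when cells were split 1:10 on day 6.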
In general terms: In ATP-based viability assays light output follows the ATP content of the culture.

Assay [4] concerns PRMT5-dependent Symmetric Di-methyl Arginine signal in HCT116 parental cells. Kind of assay: SYM11 In-Cell Western, HCT116 parental. The format is cell-based. Particulars: Homo sapiens, HCT-116, 96 h, 4 days of treatment, SYM11/DRAQ5 ratio. In outline: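 HCT116 parental cells (2,000/well, McCoy's 5A with 10% FBS) dosed with PRMT5 inhibitors for four days at 37° C. Fixed in paraformaldehyde and methanol, then stained with SYM11 antibody and DRAQ5.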

The subject of assay [5] is PRMT5-dependent Symmetric Di-methyl Arginine signal in HCT116 homozygous MTAP knockout cells. Kind of assay: SYM11 In-Cell Western, HCT116 MTAP knockout. Type of assay: cell-based. Particulars: Homo sapiens, HCT-116, 96 h, HCT116 homozygous MTAP knockout cells, 4 days of treatment, SYM11/DRAQ5 ratio; read-out: In-cell-Western (SYM11) HCT116 MTAP_KO IC50.

pIC50: −log10 of the molar value.

T1 sequence (O14744 2-637): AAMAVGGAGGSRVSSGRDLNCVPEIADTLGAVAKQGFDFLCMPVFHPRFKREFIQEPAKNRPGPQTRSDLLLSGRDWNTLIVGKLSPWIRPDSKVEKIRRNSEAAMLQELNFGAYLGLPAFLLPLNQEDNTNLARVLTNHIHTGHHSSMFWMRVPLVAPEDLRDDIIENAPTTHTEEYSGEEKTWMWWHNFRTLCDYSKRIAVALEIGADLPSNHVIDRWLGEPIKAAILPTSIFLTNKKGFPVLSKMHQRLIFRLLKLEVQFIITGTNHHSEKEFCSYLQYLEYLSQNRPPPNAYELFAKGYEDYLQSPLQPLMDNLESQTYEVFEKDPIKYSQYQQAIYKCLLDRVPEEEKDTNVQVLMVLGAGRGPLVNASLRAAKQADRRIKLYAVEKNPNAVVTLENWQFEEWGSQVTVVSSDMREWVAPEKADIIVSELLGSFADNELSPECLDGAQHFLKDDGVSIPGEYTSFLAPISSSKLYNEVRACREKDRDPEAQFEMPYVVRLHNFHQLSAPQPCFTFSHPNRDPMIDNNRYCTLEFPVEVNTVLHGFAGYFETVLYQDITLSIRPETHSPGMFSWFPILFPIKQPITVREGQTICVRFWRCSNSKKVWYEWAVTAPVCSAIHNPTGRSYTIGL
T1 sequence (Q9BQA1 2-342 partner): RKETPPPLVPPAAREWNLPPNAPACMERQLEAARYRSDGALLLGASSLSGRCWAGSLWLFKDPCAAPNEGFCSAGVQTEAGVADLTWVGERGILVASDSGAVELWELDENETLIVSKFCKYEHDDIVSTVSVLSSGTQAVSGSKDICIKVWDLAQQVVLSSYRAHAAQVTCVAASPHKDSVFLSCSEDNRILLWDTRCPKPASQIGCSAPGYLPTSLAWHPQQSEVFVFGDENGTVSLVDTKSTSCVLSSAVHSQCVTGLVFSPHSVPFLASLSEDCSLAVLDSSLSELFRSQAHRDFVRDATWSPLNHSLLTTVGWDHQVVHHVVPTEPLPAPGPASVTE

Turning to `CN(c1ccccc1)c1cncc(-c2ccc3c(=O)[nH]nc(CN)c3c2)c1` [Example 4-159, 4-(aminomethyl)-6-(5-(methyl(phenyl)amino)pyridin-3-yl)phthalazin-1(2H)-one], the IC50 on PRMT5/MEP50 complex [1] is 4 nM. Further, the pIC50 on PRMT5/MEP50 complex [1] was 7.16; on PRMT5/MEP50 complex [2], 6.41; in the assay on HCT116 parental cells it was less than 5.00; in assay [3], 5.08; in assay [4] it was less than 5.00; in assay [5] it was less than 5.00.
As for `CCOc1ccn2ncc(-c3ccc4c(=O)[nH]nc(CN)c4c3)c2c1` [Example 4-158, 4-(aminomethyl)-6-(5-ethoxypyrazolo[1,5-a]pyridin-3-yl)phthalazin-1(2H)-one], on PRMT5/MEP50 complex [1], the IC50 was 2.8 nM. Further, the pIC50 is 6.95 on PRMT5/MEP50 complex [1]; 5.84 at PRMT5/MEP50 complex [2]; 5.76 in the assay on HCT116 parental cells; 5.66 in assay [3]; less than 5.00 in assay [4]; less than 5.00 in assay [5].
For `Cc1cccc(-c2c(-c3ccc4c(=O)[nH]nc(CN)c4c3)cnn2C)c1` [Example 4-94, 4-(aminomethyl)-6-(1-methyl-5-(m-tolyl)-1H-pyrazol-4-yl)phthalazin-1(2H)-one], the IC50 at PRMT5/MEP50 complex [1] worked out at 2.2 nM. The pIC50 was 7.08 on PRMT5/MEP50 complex [1]; 6.13 at PRMT5/MEP50 complex [2]; 5.31 in the assay with HCT116 parental cells; 5.74 in assay [3]; 5.00 in assay [4]; 5.93 in assay [5].
For `Cn1ncc(-c2cc(Cl)c3c(=O)[nH]nc(CN)c3c2)c1-c1cccc(Cl)c1C#N` [Example 10-3, 2-(4-(4-(aminomethyl)-8-chloro-1-oxo-1,2-dihydrophthalazin-6-yl)-1-methyl-1H-pyrazol-5-yl)-6-chlorobenzonitrile], the pIC50 on PRMT5/MEP50 complex [2] is 6.07; in the assay on HCT116 parental cells it was 5.07; in assay [3] it was 6.62; in assay [4] it was 5.42; in assay [5], 8.30.
Turning to `Cn1ncc(-c2ccc3c(=O)[nH]nc(CN)c3c2)c1-c1ccccc1C#N` [Example 4-100, 2-(4-(4-(aminomethyl)-1-oxo-1,2-dihydrophthalazin-6-yl)-1-methyl-1H-pyrazol-5-yl)benzonitrile], on PRMT5/MEP50 complex [1], the half-inhibitory concentration (IC50) is 0.5 nM. Moreover, the pIC50 was 7.10 on PRMT5/MEP50 complex [1]; 5.82 on PRMT5/MEP50 complex [2]; 5.00 with HCT116 parental cells; 5.28 in assay [3]; 5.00 in assay [4]; 6.30 in assay [5].
As for `CCCc1cccc(-c2c(-c3ccc4c(=O)[nH]nc(CN)c4c3)cnn2C)c1C#N` [Example 4-189, 2-(4-(4-(aminomethyl)-1-oxo-1,2-dihydrophthalazin-6-yl)-1-methyl-1H-pyrazol-5-yl)-6-propylbenzonitrile], the pIC50 on PRMT5/MEP50 complex [2] is 6.18; with HCT116 parental cells, less than 5.00; in assay [3], 6.63; in assay [4] it was 5.74; in assay [5] it was 7.51.
`Cc1cc(C#N)c(-c2c(-c3ccc4c(=O)[nH]nc(CN)c4c3)cnn2C)cc1C` [Example 4-131, 2-(4-(4-(aminomethyl)-1-oxo-1,2-dihydrophthalazin-6-yl)-1-methyl-1H-pyrazol-5-yl)-4-5-dimethylbenzonitrile]: the pIC50 was 5.72 at PRMT5/MEP50 complex [2]; less than 5.00 with HCT116 parental cells; 6.07 in assay [3]; 5.49 in assay [4]; 7.37 in assay [5].
